What was measured:
recombinant human CLK3 = target: T1, recombinant human CLK3 (Homo sapiens, UniProt P49761); experiment: CLK3 kinase assay (LANCE Ultra); type: biochemical; conditions: CLK3 0.5 nM, ATP 300 μM, 3 hours at 30° C.
T1 construct: purchased Thermo Fisher Scientific PV3826
Procedure, shortened: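 Recombinant human CLK3 (0.5 nM) with ULight-CREBtide (50 nM) and 300 μM ATP, 3 h at 30 °C in kinase buffer; EDTA stop, then Eu-anti-phospho-CREB antibody (2 nM, 1 h RT), TR-FRET read at 665/620 nm. Inhibition normalized to DMSO and no-ATP wells; IC50 from 4-parameter fit, ten 1:3 concentrations in duplicate.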

MDA-MB-231 cells = experiment: MDA-MB-231 proliferation assay; type: cell-based; conditions: Homo sapiens, MDA-MB-231, 72 h, YO-PRO-1 Iodide readout
Procedure, shortened: (§1)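 Cells seeded at 750 per well, treated next day for 72 h at 37 °C with 0.5% final DMSO. Cell number read by YO-PRO-1 fluorescence after lysis, normalized to DMSO (100%) and time-zero cells (0%). GI50 from 4-parameter logistic fit, maximum constrained to 100%.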

CAL-51 cells = experiment: CAL-51 proliferation assay; type: cell-based; conditions: Homo sapiens, CAL-51, 72 h, YO-PRO-1 Iodide readout
Procedure, shortened: as §1

T1 sequence (P49761 whole entry): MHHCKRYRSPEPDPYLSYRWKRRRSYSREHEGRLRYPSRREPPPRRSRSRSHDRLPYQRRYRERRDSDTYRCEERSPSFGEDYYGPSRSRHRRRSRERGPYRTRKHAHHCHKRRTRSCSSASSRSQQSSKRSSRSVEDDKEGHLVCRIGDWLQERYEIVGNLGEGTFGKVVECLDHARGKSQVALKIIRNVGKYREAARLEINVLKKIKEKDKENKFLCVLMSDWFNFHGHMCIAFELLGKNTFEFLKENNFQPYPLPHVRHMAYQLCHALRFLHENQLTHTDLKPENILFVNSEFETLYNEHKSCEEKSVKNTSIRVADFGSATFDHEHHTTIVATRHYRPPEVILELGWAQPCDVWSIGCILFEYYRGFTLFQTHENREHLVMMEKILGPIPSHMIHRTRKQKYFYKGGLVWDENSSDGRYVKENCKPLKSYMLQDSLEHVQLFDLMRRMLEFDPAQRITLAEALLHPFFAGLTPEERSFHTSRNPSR

**Q.** Which results are given for `CN(CC(C)(C)C#N)c1c(O[C@H]2CC[C@H](N)CC2)ccc2c1CC(C)(C)c1c(N)ncnc1-2` [Example 91, 3-[[4-amino-8-(trans-4-aminocyclohexoxy)-5,5-dimethyl-6H-benzo[h]quinazolin-7-yl]-methyl-amino]-2,2-dimethyl-propanenitrile]?
**A.** IC50 (recombinant human CLK3): < 30 nM; GI50 (MDA-MB-231 cells): < 100 nM; GI50 (CAL-51 cells): < 100 nM

**Q.** Which results are given for `CN(CC1(C#N)CC1)c1c(O[C@H]2CC[C@H](N)CC2)ccc2c1CC(C)(C)c1c(N)ncnc1-2` [Example 48, 1-[[[4-amino-8-(trans-4-aminocyclohexoxy)-5,5-dimethyl-6H-benzo[h]quinazolin-7-yl]-methyl-amino]methyl]cyclopropanecarbonitrile]?
**A.** IC50 (recombinant human CLK3): < 30 nM; GI50 (MDA-MB-231 cells): < 100 nM; GI50 (CAL-51 cells): < 100 nM

**Q.** For `CC1(C)Cc2c(ccc(O[C@H]3CC[C@H](N)CC3)c2NCC2(C#N)CC2)-c2ncnc(N)c21` [Example 76, 1-[[[4-amino-8-(trans-4-aminocyclohexoxy)-5,5-dimethyl-6H-benzo[h]quinazolin-7-yl]amino]methyl]cyclopropanecarbonitrile], which IC50 (recombinant human CLK3) is on record?
**A.** 101 to 1000 nM

**Q.** What about the GI50 (MDA-MB-231 cells) of the same compound?
**A.** 100 to 2000 nM

**Q.** And the GI50 (CAL-51 cells)?
**A.** 100 to 2000 nM

**Q.** What does the source list for `COc1ccc2c(c1N(CCC#N)Cc1nnc(C(C)F)o1)CC(C)(C)c1c(N)ncnc1-2` (stereo not drawn) [Example 124, 3-[(4-amino-8-methoxy-5,5-dimethyl-6H-benzo[h]quinazolin-7-yl)-[[5-(1-fluoroethyl)-1,3,4-oxadiazol-2-yl]methyl]amino]propanenitrile]?
**A.** IC50 (recombinant human CLK3): 101 to 1000 nM; GI50 (MDA-MB-231 cells): 100 to 2000 nM; GI50 (CAL-51 cells): 100 to 2000 nM

**Q.** `CC1(C)Cc2c(ccc(O[C@H]3CC[C@H](N)CC3)c2N2CCC(C#N)C2)-c2ncnc(N)c21` (single isomer, unassigned) [Example 49, 1-[4-amino-8-(trans-4-aminocyclohexoxy)-5,5-dimethyl-6H-benzo[h]quinazolin-7-yl]pyrrolidine-3-carbonitrile] was tested. Which IC50 (recombinant human CLK3) did it give?
**A.** < 30 nM

**Q.** And the GI50 (MDA-MB-231 cells)?
**A.** < 100 nM

**Q.** What about the GI50 (CAL-51 cells) of the same compound?
**A.** < 100 nM

**Q.** `CN(CCC(C)(C)O)c1c(O[C@H]2CC[C@H](N)CC2)ccc2c1CC(C)(C)c1c(N)ncnc1-2` [Example 111, 4-[[4-amino-8-(trans-4-aminocyclohexoxy)-5,5-dimethyl-6H-benzo[h]quinazolin-7-yl]-methyl-amino]-2-methyl-butan-2-ol] was tested. Which IC50 (recombinant human CLK3) did it give?
**A.** 101 to 1000 nM

**Q.** What about the GI50 (MDA-MB-231 cells) of the same compound?
**A.** 100 to 2000 nM

**Q.** And the GI50 (CAL-51 cells)?
**A.** 100 to 2000 nM

**Q.** Which results are given for `CCOC(=O)CNc1c(O[C@H]2CC[C@@H](N)CC2)ccc2c1CC1(CCCC1)c1c(N)ncnc1-2` [Example 65, ethyl 2-[[4-amino-8-(cis-4-aminocyclohexoxy)spiro[6H-benzo[h]quinazoline-5,1′-cyclopentane]-7-yl]amino]acetate]?
**A.** IC50 (recombinant human CLK3): 30 to 100 nM; GI50 (MDA-MB-231 cells): 100 to 2000 nM; GI50 (CAL-51 cells): 100 to 2000 nM

**Q.** `CC1(C)Cc2c(ccc(Br)c2N(CCC#N)C[C@@H]2CNC(=O)O2)-c2ncnc(N)c21` [Example 132, 3-[(4-amino-8-bromo-5,5-dimethyl-6H-benzo[h]quinazolin-7-yl)-[[(5S)-2-oxooxazolidin-5-yl]methyl]amino]propanenitrile] was tested. Which IC50 (recombinant human CLK3) did it give?
**A.** < 30 nM

**Q.** What about the GI50 (MDA-MB-231 cells) of the same compound?
**A.** 100 to 2000 nM

**Q.** And the GI50 (CAL-51 cells)?
**A.** 100 to 2000 nM

**Q.** What does the source list for `CN(CCO)c1c(O[C@H]2CC[C@@H](N)CC2)ccc2c1CC1(CCCC1)c1c(N)ncnc1-2` [Example 83, 2-[[4-amino-8-(cis-4-aminocyclohexoxy)spiro[6H-benzo[h]quinazoline-5,1′-cyclopentane]-7-yl]-methyl-amino]ethanol]?
**A.** IC50 (recombinant human CLK3): < 30 nM; GI50 (MDA-MB-231 cells): < 100 nM; GI50 (CAL-51 cells): < 100 nM

**Q.** Which results are given for `CN(CCC(=O)O)c1c(O[C@H]2CC[C@H](N)CC2)ccc2c1CC(C)(C)c1c(N)ncnc1-2` [Example 85, 3-[[4-amino-8-(trans-4-aminocyclohexoxy)-5,5-dimethyl-6H-benzo[h]quinazolin-7-yl]-methyl-amino]propanoic acid]?
**A.** IC50 (recombinant human CLK3): 30 to 100 nM; GI50 (MDA-MB-231 cells): > 2000 nM; GI50 (CAL-51 cells): > 2000 nM

**Q.** `CC1(C)Cc2c(ccc(O[C@H]3CC[C@@H](N4CCOCC4)CC3)c2NC[C@@H]2CNC(=O)O2)-c2ncnc(N)c21` [Example 130, (5R)-5-[[[4-amino-5,5-dimethyl-8-(cis-4-morpholinocyclohexoxy)-6H-benzo[h]quinazolin-7-yl]amino]methyl]oxazolidin-2-one] was tested. Which IC50 (recombinant human CLK3) did it give?
**A.** < 30 nM

**Q.** And the GI50 (MDA-MB-231 cells)?
**A.** > 2000 nM

**Q.** What about the GI50 (CAL-51 cells) of the same compound?
**A.** 100 to 2000 nM

Source: patent US20260159486A1, “BENZO[H]QUINAZOLINE-4-AMINE DERIVATIVES FOR THE TREATMENT OF CANCER” (Redona Therapeutics, Inc., priority 2021, published 2026)
